Data: US8076485B2, “Methylphenidate derivatives and uses of them” (priority 2005, dated 2011)

Experiments:
[1] = threo versus erythro methylphenidate; cited from earlier work
NFκB = test: Activated NFκB in TNFα- or VEGF-treated HIAECs (TransAM assay); assay type: cell-based; conditions: Homo sapiens, TNFα 10 ng/ml, Cpd II 15 μg/ml, LY 294002 10 μM, read-out: Percent Inhibition (NFκB)
Method: Passage 8 (human iliac artery endothelial cells (HIAECs) (obtained from ATCC; catalog no. CC-2545) were grown to confluence in 25 cm^2 flasks in EGM-2 medium. Eighteen hours prior to the experiment, the medium was replaced with EGM-2 medium containing 0.1% FCS plus heparin, GA1000 (gentamycin) and bovine pituitary extract (all from Cambrex) to place the cells in a resting state. To perform the experiment the medium was aspirated from the flasks, and the following additives were added to the flasks in fresh medium (total volume of 5 ml/flask): 15 μg/ml of the compound of formula II (Cpd II) or 10 μM LY 294002. The flasks were incubated 2 hours at 37° C., 5% CO2. After this incubation, VEGF or TNFα was added to give a final concentration 10 ng/ml, and the flasks were incubated for an additional 30 minutes. Then, the amount of NFκB was determined using a TransAM™ NFκB p65/NFκB p50 Transcription Factor Assay Kit and a Nuclear Extract Kit from Active Motif North America, Carlsbad, Calif., as described in Example 12.

erythropoietin (EPO) = test: Erythropoietin (EPO) release from HepG2 cells (ELISA); assay type: cell-based, human; conditions: HepG2, hypoxia (5% CO2), 24 hours; Cpd II 15 μg/ml, LY 294002 25 μM; hypoxia alone 108.39 ± 2.81
Method: HepG2 is a human hepatic cancer cell line, which was obtained from ATCC. HepG2 cells were grown to confluence in 25 cm^2 flasks in IMDM medium containing 10% FCS. Then, the cells were trypsinized as follows. The medium in each flask was aspirated and replaced with 5 ml of 0.025% trypsin/EDTA (Cambrex). The cells were monitored on a microscope until they no longer adhered to the flasks. Then, 5 ml of trypsin neutralizing solution (TNS) (Cambrex) were added to each flask to stop the reaction. The cell suspension was centrifuged at 1000 rpm for 10 minutes, and the supernatants were aspirated. The cells were reconstituted in fresh medium and counted. Then, 4 ml of the cell suspension in medium containing at 1.22×10^6 cells/ml were mixed with an additional 1 ml of medium. Next, 0.5 ml/well of the resulting cell suspension was added to wells in a 24-well culture plate (about 500,000 cells/well). The cells were treated as indicated in Table 5 below and incubated for 24 hours at 37° C., with or without 5% CO2. The supernatants were removed from the wells and centrifuged to remove debris. Next, the supernatants were analyzed for erythropoietin (EPO) production. EPO was measured by ELISA using a kit obtained from R & D Systems, Minneapolis, Minn. (catalog no. DE900) following the manufacturer's instructions.

TCR-positive cells = test: Annexin staining of TCR-positive cells (flow cytometry, cell death); assay type: cell-based, human; conditions: PHA plus dexamethasone 10 μM
Method: After this incubation, PHA was added to give a final concentration of 5 μg/ml, and the cells were incubated for an additional 72 hours at 37° C., 5% CO2. All cultures were performed in triplicate. Cells were then removed by centrifugation at 1000 rpm for 10 minutes.
The cells were further analyzed by flow cytometry Annexin was used to determine populations of dead or dying cells. Anti-CD69 antibody was used to establish the level of cellular activation. Antibody to T-cell receptor αβ (TCR) was also used. Recombinant Annexin 5 (PE and FITC conjugates) and the antibodies were all purchase from Caltag (Burlingham, Calif.) and used following the manufacturer's recommendations.

IL-8 = IL-8 release from LPS-stimulated THP-1 monocytes (ELISA); assay type: cell-based; conditions: THP-1, LPS 200 ng/ml, 24 hours; Cpd II 15 μg/ml, Dex 10 μM
Method: (§1) THP-1 is a monocyte cell line obtained from American Type Culture Collection (ATCC) (catalog no. TIB-202). […] After 1 hour, lipopolysaccharide (LPS) (obtained from Sigma) was added to the cultures to give a final concentration of 200 ng/ml, and the cells were then incubated for an additional 4 hours or for an additional 24 hours. After the incubation, the cells were centrifuged, and the supernatants were collected. The concentrations of IL-8 and TNFα in the supernatants were determined by ELISA.
The concentrations of IL-8 in the supernatants were determined by ELISA performed as described in Example 4.

TNFα = TNFα release from LPS-stimulated THP-1 monocytes (ELISA); assay type: cell-based; conditions: THP-1, LPS 200 ng/ml, 24 hours; Cpd II 15 μg/ml, Dex 10 μM
Method: as §1
The TNFα ELISA was performed as described in Example 2.

For `COC(=O)C(c1ccccc1)C1CCCCN1` (single isomer, unassigned) [threo diastereomer], which “potency relative to the erythro diastereomer” value [1] is on record?
Its value is “about 80 times”.

Which results are given for `O=c1cc(N2CCOCC2)oc2c(-c3ccccc3)cccc12` [LY 294002, reference compound]?
inhibition at 10 µM (NFκB): 10%; Mean Units/ml EPO (erythropoietin (EPO)): 52.99 ± 1.04 Units/ml

What does the source list for `C[C@@H]1C[C@H]2[C@@H]3CCC4=CC(=O)C=C[C@]4(C)[C@@]3(F)[C@@H](O)C[C@]2(C)[C@@]1(O)C(=O)CO` [dexamethasone, reference compound]?
Annexin staining of TCR-positive cells (TCR-positive cells): 48%; Mean IL-8 Concentration (IL-8): 2300.00 ± 283.41 pg/mL; Mean TNFα Concentration (TNFα): 94.759 ± 8.755 pg/mL
